From patent US8268849B2, “Multifunctional Antioxidants and methods of use thereof” (priority 2007, dated 2012)

Legend:
[1] = Chelation study by ESI-MS, Fe^2+ solution; assay type: binding; settings: 10:1 metal:compound, 45 minutes of mixing
Method: (§1) The relative amount of ions bound by JHX-1-JHX-8 was determined by electrospray ionization mass spectrometry (ESI-MS) according to the method of Baron and Hering (Baron and Hering (1998) Spectrometry J. Environ. Qual., 27:844-850). In this method solutions containing Fe^2+, Fe^3+, Cu^1+, Cu^2+, Zn^2+, Ca^2+, Mg^2+ were mixed with compound in ratios of 10:1, 1:1, and 1:10. After 45 minutes of mixing, each solution was directly infused into the MS with constant ionization energy and the relative decreases of the parent peaks in these solutions were determined. […] FIG. 3 illustrates ion binding with increased Fe^+2 concentrations results in decreased compound parent peak heights by ESI-MS when compounds contain appropriate functional groups for metal ion chelation.

[2] = Chelation study by ESI-MS, Cu^1+ solution; assay type: binding; settings: 10:1 metal:compound, 45 minutes of mixing
Method: as §1

[3] = Chelation study by ESI-MS, Cu^2+ solution; assay type: binding; settings: 10:1 metal:compound, 45 minutes of mixing
Method: as §1

[4] = tested on: SRA-1 human lens epithelium cell line; assay: MTS cell viability assay; assay type: cell-based; settings: 1.0 mM H2O2, 2 hours, 1 mM compound
Method: The SRA-1 human lens epithelium cell line (Ibaraki et al. (1998) Exp. Eye Res., 67:577-85) was used to evaluate the antioxidant activity of JHX-1-8. […] The cells were passaged when 80-90% confluent by treatment with trypsin-EDTA. The cells were plated at a density of 1×10^4 cells onto 96-well plates or 1×10^6 cells onto 100-mm dishes. ROS levels/effects in cells treated with JHX-1-8 were compared to similar cells treated with the water soluble Vitamin E derivative, Trolox (antioxidant control) or no drug (control). […] Cells were cultured in 96-well plates and exposed for 2 hours to media containing 1.0 mM H2O2 (FIG. 5A) or Fenton reagents (1.0 mM H2O2 and 1.0 mM Fe^2+, FIG. 5B) with/without 1 mM JHX-1-8 or Trolox. Viability was measured as the absorbance of MTS stain at 490 nm 1 hour after the addition of 20 μL of […] AQueous One Solution Cell Proliferation Assay to each well. The results were normalized to blank control (100%) since absorbance is directly proportional to the living cell population.

[5] = Drug levels in target tissues after oral administration; assay type: in vivo, Sprague Dawley rats; settings: normal young rats; for drug detected in the brain: chow containing 0.05% drug for 6 days; for Lens drug level / retinal drug level: chow containing 0.05% drug for 6 days (80±10 mg/kg/day), HPLC; for retinal drug level: posterior segment
Method: (§2) To determine whether JHX-4 and JHX-8 can reach the target tissues of lens, retina and brain after oral administration, two groups of 4 young (100 g) Sprague Dawley rats were administered rat chow containing 0.05% of either drug for 6 days. […] Lens and posterior segments were homogenized in glass homogenizers in ice-cold PBS, pH 7.4, after addition of an aliquot of JHX-1 as an internal standard. The homogenates were deproteinized with 48 mM NaF and centrifuged. The supernatant was extracted with acetone. The acetone extract was evaporated under vacuum and the residue was dissolved in acetonitrile. Whole brains were similarly extracted; however, brain homogenates were deproteinized with equal amounts of 0.3 N Na2SO4 and 0.3 N Ba(OH)2. Drug levels were measured by reverse-phase HPLC with a Phenomenex LUNA 5 μm C18 column and an isocratic elution of 1:1 MeOH:Water. Detection was conducted at 245 nm and compound levels were quantified using standard curves. Lens and retinal drug levels were 200±11 and 1373±38 ng/mg protein for JHX-4 and 90±5 and 1060±12 ng/mg protein for JHX-8 respectively. Only trace amounts of either compound were detected in the brain.

[6] = Tissue drug levels in diabetic rats after 47 days of feeding; assay type: in vivo, Sprague Dawley rats
Method: as §2
Diabetes was induced in 100 g Sprague Dawley rats with streptozotocin injection (75 mg/kg) and all rats with blood sugar levels >300 mg/dL were divided into 4 groups of 8 rats each. One group received only standard rat chow (untreated diabetic) while each of the other groups received chow containing either 0.0125% ARI Al1576, 0.025% JHX-4 or 0.025% JHX-8. Lens changes were monitored by at 3-5 day intervals by slit lamp following tropicamide mydriasis. As summarized in FIGS. 8A-8C, vacuole formation began by 14 days in the untreated diabetic group with cortical opacities observed by 29 days and mature cataracts by 44 days. […] In the two antioxidant treated groups, vacuole formation was delayed by 19 and 11 days by JHX-4 and JHX-8, respectively, and cortical cataracts by 9 and 3 days, respectively. At the end of the study (47 days) all rats were equally diabetic with HbA1C levels >11.9%. All eyes were enucleated and lens sorbitol levels were measured as previously described (Kador et al. (2007) J. Ocul. Pharmacol. Ther., 23:116-23). […] Tissue levels of JHX-4 and -8 in the lens, neural retina and brain were determined after 47 days of feeding as described above (FIG. 10). […] Overall drug levels in both the lens and retina were ca. 3-fold higher in the diabetic rats with brain levels also now present. This increase may be due to either an accumulation of drug, or increased permeability of tissues and the BBB to drug in streptozotocin diabetic rats (Mooradian et al. (2005) Diabetes, 54:2977-82).

Compound | % Parent Peak Remaining at 10:1 Solution of Metal:Compound [1] [%] | % Parent Peak Remaining at 10:1 Solution of Metal:Compound [2] [%] | % Parent Peak Remaining at 10:1 Solution of Metal:Compound [3] [%] | protection against H2O2 induced loss of cell viability [4] | drug detected in the brain [5] | Lens drug level [5] [ng/mg protein] | retinal drug level [5] [ng/mg protein] | brain levels of drug [6] | drug levels in both the lens and retina, diabetic rats versus normal rats [6]
CN(C)S(=O)(=O)N1C(=O)CN(c2ncc(O)cn2)CC1=O [JHX-4, 1-N,N′-dimethylsulfamoyl-4-(5-hydroxy-2-pyrimidyl)piperazine-2,6-dione] | 6.9 | 4.2 | 3.0 | protecting against H2O2 induced loss of cell viability | trace amounts | 200±11 | 1373±38 | now present | ca. 3 fold
COc1nc(N2CC(=O)N(S(=O)(=O)N(C)C)C(=O)C2)nc(OC)c1O [JHX-8, 1-N,N′-dimethylsulfamoyl-4-(4,6-dimethoxy-5-hydroxy-2-pyrimidyl)piperazine-2,6-dione] | 7.5 | 4.0 | 3.6 | protecting against H2O2 induced loss of cell viability | trace amounts | 90±5 | 1060±12 | now present | ca. 3 fold
